Source: publication PMC5531531, “A synthetic cationic antimicrobial peptide inhibits inflammatory response and the NLRP3 inflammasome by neutralizing LPS and ATP” (PLoS ONE, 2017)
No end group written: not given here.

These sequences were tested on LPS-induced NO generation in RAW264.7 cells (assay: NO inhibitory assay (Griess reaction), LPS-activated RAW 264.7). Conditions: E. coli LPS 0.1 μg/ml, 24 h, Griess reaction; mean of triplicate wells from at least three experiments.
Format: cell-based, mouse
Protocol: RAW 264.7 cells (2 × 10^5 in 0.5 ml of medium) were seeded in 24-well plates and then incubated with or without LPS (0.1 μg/ml) in the absence or presence of AMP for 24 h. The effects of AMP on NO production were measured indirectly by analyzing nitrite levels using the Griess reaction as described in detail previously.
For “GWGSFFKKAAHVGKHVGKAALTHYL [Ple, Pleurocidin, reference compound]”, the “ED50, effective dose of AMPs that inhibits 50% of LPS-induced NO generation in RAW264.7 cells” value was greater than 8 µM.
For GATYAKKIIKTITKIATTAW [GW-A5], the “ED50, effective dose of AMPs that inhibits 50% of LPS-induced NO generation in RAW264.7 cells” value was greater than 8 µM.
With GAKYAKYIYNFYKYIAKYIW [GW-A1] the “ED50, effective dose of AMPs that inhibits 50% of LPS-induced NO generation in RAW264.7 cells” value was greater than 8 µM.
GANAAKKLATFAKKIFTAYW [GW-M1] was tested, and the “ED50, effective dose of AMPs that inhibits 50% of LPS-induced NO generation in RAW264.7 cells” value was 4 µM.
For GLTFLKKILNFAKKIYTAIW [GW-H3], the “ED50, effective dose of AMPs that inhibits 50% of LPS-induced NO generation in RAW264.7 cells” value was 4 µM.
With GYNYAKKLANLAKKFANALW [GW-H1] the “ED50, effective dose of AMPs that inhibits 50% of LPS-induced NO generation in RAW264.7 cells” value was greater than 8 µM.
With GAKALTKAATAFTKFYKTIW [GW-A4] the “ED50, effective dose of AMPs that inhibits 50% of LPS-induced NO generation in RAW264.7 cells” value was 4 µM.
In the case of “GIGKFLHSAKKWGKAFVGEIMNS [Peptide M2a, Magainin 2a, reference compound]”, the “ED50, effective dose of AMPs that inhibits 50% of LPS-induced NO generation in RAW264.7 cells” value is reported as greater than 8 µM.
For GANAAKKFATIAKKFINYLW [GW-Q4], the “ED50, effective dose of AMPs that inhibits 50% of LPS-induced NO generation in RAW264.7 cells” value was greater than 8 µM.
GYKYYNKIYNYLNKYLKYAW [GW-H0] was tested, and the “ED50, effective dose of AMPs that inhibits 50% of LPS-induced NO generation in RAW264.7 cells” value was 5 µM.
For GANLAKKFYTYINKFINYAW [GW-Q3], the “ED50, effective dose of AMPs that inhibits 50% of LPS-induced NO generation in RAW264.7 cells” value was 7 µM.
GIKIAKKAITIAKKIAKIYW [GW-Q6] was tested, and the “ED50, effective dose of AMPs that inhibits 50% of LPS-induced NO generation in RAW264.7 cells” value was 4 µM.
